What all share (format): in vivo
Assay [1] deals with Seeds of Lettuce R. (Super-Jericho). Briefly: Filter paper bioassay with lettuce seeds: germination and early plant development, Minimal Effective Concentration (MEC). Particulars: lettuce seeds on filter paper, 0 to 1 mmol/l, visually assessed after 6 days. The gist of the method:
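Visual scoring on day 6 of radicle and shoot growth gives the MEC, the lowest dose deviating from control (no germination or malformation). Seeds (lettuce Super-Jericho, 10 per plate) sat on filter paper with 0–1 mmol/l aqueous compound, 48 h dark then 4 days 6/18 dark/light, in at least two repeats.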

The subject of assay [2] is Romaine lettuce (Lactuca sativa L.) plants. Briefly: Post-emergence herbicidal activity on potted Romaine lettuce plants (soil or foliar application). The settings on record: lettuce at 2 to 3 leaves, two weeks after treatment. Here is the method: The tests were performed on Romaine lettuce (Lactuca sativa L.) plants at the stage 2 to 3 leaves. The plants were grown in mini-pots packed with soil, dimensions 2×2×5 cm, one plant per mini-pot. Test compounds were dissolved in 0.1% aqueous solution water solution of Silwet adjuvant to final concentrations ranging from 0 (Control) to 0.0001%. The test compounds were applied on soil (1 ml per pot) or foliar with airbrush (0.1 ml per pot). Each concentration was tested on 20 plants. Two weeks after the treatment the herbicidal effects of the respective test material were visually evaluated (aboveground part and roots. Then the aboveground part of the plants was neatly cut and weighed (wet weight) to assess the growth inhibition caused by the test compound. The growth inhibition (GI) was calculated as following: […]
Where Mt and Mc are median wet weight of treated and control plants, respectively. In the context of the invention, the herbicidal effect was assessed by concentration of the compound causing more than 85% of Growth Inhibition (GI) or irreversible damage of the plants (Table 3). Herbicidal activity of selected DHAAs is summarized in Table 4 (soil application) and Table 5 (Foliar application).

The test system of assay [3] is Seeds of Lettuce R. (Super-Jericho). Briefly: Filter paper bioassay with lettuce seeds: germination, Fully Effective Concentration (FEC). Particulars: lowest concentration mostly preventing lettuce seed germination, assessed after 6 days. The text has this: Materials: Seeds of Lettuce R. (Super-Jericho, non-sterilized) were obtained from Ben Shahar Moshe Ltd., 99% purity. The test compounds listed in the Table 2 below were synthetized de novo or purchased from different vendors.
Filter Paper Bioassays with Lettuce seeds: The protocol is following Bertin et al. 2009 and Movellan et al. 2014 with specified modifications as described below.
Seeds were placed on Whatman no. 1 filter paper (Whatman, Middlesex, U.K.) in Petri dishes (10 seeds per plate) with 2.0 ml of aqueous solution of a test material in concentration ranged from 0 (control) to 1 mmol/l were placed in a tray tilted at 45°. The trays were kept in dark for 48 hours and then transferred to the growth chamber with 6/18 dark/light cycle for 4 days. Each experiment was performed at least with two repeats.
The development of plants' radicle and shoots were visually assessed 6 days after the beginning of the test to determine Fully Effective Concentration (FEC) of a test material. In the context of the invention, FED is defined as the lowest concentration level of a test material that mostly preventing seeds germination.

Here are results for 24 molecules from patent US20240284907A1, “NOVEL DERIVATIVES OF NON-CODED AMINO ACIDS AND THEIR USE AS HERBICIDES” (FortePhest LTD., priority 2021, published 2024).

“2-(2-methoxyethoxy)ethyl(2-chloro-1,3-thiazol-4-yl)(difluoro)acetate [compound 5746]”: the “Score (activity score of Minimal Effective Concentration, MEC)” value in assay [1] is given as “very strong”. In addition, the “Score (test material causing more than 85% of Growth Inhibition or irreversible plant damage)” value in assay [2] (foliar application) and in assay [2] (soil application) was “strong (0.01 to 0.05)” each time. For the same molecule, the “FEC (Fully Effective Concentration)” value in assay [3] was 0.001 mM.
As to “(2-bromophenyl)methyl(2,5-dichlorothiophen-3-yl)(difluoro)acetate [compound 5747]”, the “Score (activity score of Minimal Effective Concentration, MEC)” value in assay [1] is on record as “very strong”. Besides, the “Score (test material causing more than 85% of Growth Inhibition or irreversible plant damage)” value in assay [2] (foliar application) and in assay [2] (soil application) was “moderate (0.5)” throughout. Moreover, in assay [3], the “FEC (Fully Effective Concentration)” value turned out to be 0.500 mM.
For the molecule “2,5,8,11,14-pentaoxahexadecan-16-yl 2-(2-chloro-1,3-thiazol-4-yl)-2,2-difluoroacetate [compound 5778]”, the “Score (activity score of Minimal Effective Concentration, MEC)” value in assay [1] is “very strong”. The “Score (test material causing more than 85% of Growth Inhibition or irreversible plant damage)” value in assay [2] (foliar application) is “moderate (0.5)”. In addition, the “FEC (Fully Effective Concentration)” value in assay [3] came out at 5.000 mM.
Consider `NCCc1cc(Cl)sc1Cl` [compound 584, 2-(2,5-dichlorothiophen-3-yl) ethan-1-amine], for which the “Score (activity score of Minimal Effective Concentration, MEC)” value in assay [1] was “moderate”. The “Score (test material causing more than 85% of Growth Inhibition or irreversible plant damage)” value in assay [2] (soil application) is “weak (1.0)”. Moreover, the “FEC (Fully Effective Concentration)” value in assay [3] is 0.500 mM.
In the same order, the values of “3-(2-chlorothiophen-3-yl)-3,3-difluoro-2-hydroxypropanenitrile [compound 5761]” are “Strong (0.01 mM)”, “strong (0.01 to 0.05)” and 0.100 mM.
With `O=C(O)C(F)(F)c1ccsc1C(F)(F)F` [compound 5728, difluoro[2-(trifluoromethyl)thiophen-3-yl]acetic acid], the “Score (activity score of Minimal Effective Concentration, MEC)” value in assay [1] was “Strong (0.01 mM)”. In addition, the “Score (test material causing more than 85% of Growth Inhibition or irreversible plant damage)” value in assay [2] (foliar application) and in assay [2] (soil application) was “strong (0.01 to 0.05)” throughout. Further, the “FEC (Fully Effective Concentration)” value in assay [3] came out at 1.000 mM.
Consider “(2-bromophenyl)methyl(2,5-dichlorothiophen-3-yl)(difluoro)acetate [compound 5772]”, for which the “Score (activity score of Minimal Effective Concentration, MEC)” value in assay [1] was “Strong (0.01 mM)”. Further, the “Score (test material causing more than 85% of Growth Inhibition or irreversible plant damage)” value in assay [2] (foliar application) is “moderate (0.5)”; in assay [2] (soil application), “strong (0.01 to 0.05)”. Also, the “FEC (Fully Effective Concentration)” value in assay [3] was found to be 0.500 mM.
Regarding “(6-bromopyridin-2-yl)methyl2-(2,5-dichlorothiophen-3-yl)-2,2-difluoroacetate [compound 5757]”, the “Score (activity score of Minimal Effective Concentration, MEC)” value in assay [1] is “Strong (0.01 mM)”. The “Score (test material causing more than 85% of Growth Inhibition or irreversible plant damage)” value in assay [2] (soil application) is listed as “strong (0.01 to 0.05)”. For the same molecule, the “FEC (Fully Effective Concentration)” value in assay [3] came out at 0.100 mM.
On to “2-(2-methoxyethoxy)ethyl(2-chloro-1,3-thiazol-4-yl)(difluoro)acetate [compound 5771]”, for which, in assay [1], the “Score (activity score of Minimal Effective Concentration, MEC)” value is reported as “very strong”. Besides, the “Score (test material causing more than 85% of Growth Inhibition or irreversible plant damage)” value in assay [2] (foliar application) is reported as “strong (0.01 to 0.05)”. For the same molecule, in assay [3], the “FEC (Fully Effective Concentration)” value turned out to be 0.050 mM.
With `O=C(OCc1ccccc1)C(F)(F)c1cc(Cl)sc1Cl` [compound 5709, benzyl(2,5-dichlorothiophen-3-yl)(difluoro)acetate], the “Score (activity score of Minimal Effective Concentration, MEC)” value in assay [1] is on record as “very strong”. Further, the “Score (test material causing more than 85% of Growth Inhibition or irreversible plant damage)” value in assay [2] (foliar application) was “moderate (0.5)”. For the same molecule, the “FEC (Fully Effective Concentration)” value in assay [3] amounted to 0.100 mM.
Take “2-(4-methylphenyl)-2-oxoethyl(2-chloro-1,3-thiazol-4-yl)(difluoro)acetate [compound 5738]”: in assay [1], the “Score (activity score of Minimal Effective Concentration, MEC)” value is recorded as “very strong”. Further, the “Score (test material causing more than 85% of Growth Inhibition or irreversible plant damage)” value is “moderate (0.5)” in assay [2] (foliar application) and “strong (0.01 to 0.05)” in assay [2] (soil application). Also, the “FEC (Fully Effective Concentration)” value in assay [3] worked out at 0.010 mM.
As for “2,2-difluoro[2-(trifluoromethyl)-1,3-thiazol-5-yl]acetic acid [compound 5700]”, the “Score (activity score of Minimal Effective Concentration, MEC)” value in assay [1] was “Moderate (0.1 mM)”. For the same molecule, in assay [3], the “FEC (Fully Effective Concentration)” value worked out at 2.000 mM.
Regarding “3-(2,5-dichlorothiophen-3-yl)-2-oxopropanoic acid [compound 5612]”, in assay [1], the “Score (activity score of Minimal Effective Concentration, MEC)” value is “Strong (0.01 mM)”. Also, the “FEC (Fully Effective Concentration)” value in assay [3] is 0.100 mM.
For `NC(N)=NCCc1cc(Cl)sc1Cl` [compound 5769, N″-[2-(2,5-dichlorothiophen-3-yl)ethyl]guanidine], the “Score (activity score of Minimal Effective Concentration, MEC)” value in assay [1] is “Strong (0.01 mM)”. In addition, the “FEC (Fully Effective Concentration)” value in assay [3] came out at 0.100 mM.
With `Cc1sc(C(F)(F)F)nc1C(F)(F)C(=O)O` [compound 5717, 2,2-difluoro-2-[5-methyl-2-(trifluoromethyl)-1,3-thiazol-4-yl]acetic acid], in assay [1], the “Score (activity score of Minimal Effective Concentration, MEC)” value is “Strong (0.01 mM)”. Further, in assay [3], the “FEC (Fully Effective Concentration)” value is listed as 0.100 mM.
Turning to “2-(2-bromo-1,3-thiazol-4-yl)-2,2-difluoroacetic acid [compound 5730]”, the “Score (activity score of Minimal Effective Concentration, MEC)” value in assay [1] is “very strong”. The “Score (test material causing more than 85% of Growth Inhibition or irreversible plant damage)” value in assay [2] (foliar application) and in assay [2] (soil application) was “strong (0.01 to 0.05)” each time. For the same molecule, in assay [3], the “FEC (Fully Effective Concentration)” value was 0.010 mM.
As to “(6-bromopyridin-2-yl)methyl(2,5-dichlorothiophen-3-yl)acetate [compound 5759]”, the “Score (activity score of Minimal Effective Concentration, MEC)” value in assay [1] is “very strong”. Also, the “Score (test material causing more than 85% of Growth Inhibition or irreversible plant damage)” value in assay [2] (foliar application) and in assay [2] (soil application) was “strong (0.01 to 0.05)” throughout. For the same molecule, the “FEC (Fully Effective Concentration)” value in assay [3] stood at 0.010 mM.
For “2-chloro-4-(2-hydrazinylethyl)-1,3-thiazole [compound 5702]”, the “Score (activity score of Minimal Effective Concentration, MEC)” value in assay [1] is given as “Moderate (0.1 mM)”. The “FEC (Fully Effective Concentration)” value in assay [3] came out at 2.000 mM.
With “ethyl(2,5-dichloro-1,3-thiazol-4-yl)(difluoro)acetate [compound 5655]”, in assay [1], the “Score (activity score of Minimal Effective Concentration, MEC)” value was “Strong (0.01 mM)”. Further, the “Score (test material causing more than 85% of Growth Inhibition or irreversible plant damage)” value in assay [2] (foliar application) and in assay [2] (soil application) was “strong (0.01 to 0.05)” each time. Moreover, the “FEC (Fully Effective Concentration)” value in assay [3] worked out at 1.000 mM.
For “ethyl 2-(2-chloro-1,3-thiazol-4-yl)-2,2-difluoroacetate [compound 5784]”, in assay [1], the “Score (activity score of Minimal Effective Concentration, MEC)” value is “very strong”. Besides, the “FEC (Fully Effective Concentration)” value in assay [3] was found to be 0.050 mM.
Consider `O=C(Cc1ccc(Br)cc1)C(F)(F)c1csc(Cl)n1` [compound 5756, 3-(4-bromophenyl)-1-(2-chloro-1,3-thiazol-4-yl)-1,1-difluoropropan-2-one], for which, in assay [1], the “Score (activity score of Minimal Effective Concentration, MEC)” value is on record as “very strong”. For the same molecule, the “FEC (Fully Effective Concentration)” value in assay [3] was 0.010 mM.
In the same order, the values of `O=C(O)C(F)(F)c1nc(Cl)sc1F` [compound 5751, (2-chloro-5-fluoro-1,3-thiazol-4-yl)(difluoro)acetic acid] are “strong.strong” and 0.100 mM.
Consider `O=C(OCc1ccccc1)C(F)(F)c1csc(Cl)n1` [compound 5762, benzyl (2-chloro-1,3-thiazol-4-yl)(difluoro)acetate], for which, in assay [1], the “Score (activity score of Minimal Effective Concentration, MEC)” value is recorded as “very strong”. In assay [3], the “FEC (Fully Effective Concentration)” value was found to be 0.010 mM.
For the molecule “(4-bromophenyl)methyl(2,5-dichlorothiophen-3-yl)acetate [compound 5735]”, the “Score (activity score of Minimal Effective Concentration, MEC)” value in assay [1] was “strong.strong”. The “FEC (Fully Effective Concentration)” value in assay [3] worked out at 0.500 mM.
